These results are taken from US5631382A, “Fulgimide compound” (Tokuyama Corporation, priority 1994, dated 1997).

What all share (assay type): physicochemical
A short description of series [1]: Wear life (T 1/2) of polymer plate in xenon fade meter, JIS L0843 and JIS B7754. The note with it: time until color density decreases to one-half the initial value. The text has this: (§1) 0.04 Parts of fulgimide compounds shown in Table 3, 70 parts of tetraethyleneglycol dimethacrylate, 15 parts of triethyleneglycol dimethacrylate, 10 parts of glycidyl methacrylate, 5 parts of 2-hydroethylmethacrylate and 1 part of perbutyl ND as a polymerization catalyst, were sufficiently mixed together until they were completely dissolved. The mixture solution was poured into a mold constituted by a glass plate and a gasket of an ethylene/vinyl acetate copolymer, and its temperature was elevated in an air oven from 35° C. to 90° C. over a period of 20 hours to effect the polymerization. After the polymerization, the polymer was taken out from the glass mold.
(§2) The obtained polymer plate was irradiated with xenon light by using a Xenon Long-Life Fade Meter FAL-25AX-HC (output: 2.5 KW, source of light: xenon long-life arc lamp) manufactured by Suga Shikenki Co., in order to measure a maximum absorption wavelength in a state of developing color. The initial color tone was observed by eyes, and YI of the samples was measured by using a color-difference meter (Model SM-4) manufactured by Suga Shikenki Co. The wear life (T 1/2) was also measured in compliance with JIS L0843 and JIS B7754. T 1/2 is defined to be the time until the color density decreases down to one-half the initial value when the polymer plate is irradiated with light by using the fade meter.
(§3) For the purpose of comparison, the fulgimide compounds represented by the following formulas (A) to (I) were also used to prepare polymer plates to measure their properties in the same procedure as described above. [drawing 113]

Series [2] can be described thus: Developed color of polymer plate under xenon light (color density, maximum absorption wavelength). The conditions noted are these: for Color density: 0.04 parts in polymer plate; for λ max: state of developing color, polymer plate.
Description: as §1, §2, §3

Series [3] in a line: Initial color of polymer plate (visual observation, YI by color-difference meter). The conditions noted are these: for Initial color, visually observed: before irradiation; for Initial color, YI: color-difference meter SM-4.
Description: as §1, §2, §3

In the case of `CSc1cc2c(n1C)C1(C3C(=O)N(C(F)(F)F)C(=O)C3=C2C(C)C)C2(C)CCC1(C)CC2` (stereo not shown) [Compound 19], in series [1], the T1/2 was found to be 110 h. In series [2], the Color density was 0.81 and the λ max is given as 603 nm. For the same compound, in series [3], the “Initial color, visually observed” value is given as “colorless” and the “Initial color, YI” value came out at 3.05.
In series [1], `COc1ccc(-c2cc3c(s2)C2(C4CC5CC(C4)CC2C5)C2C(=O)N(CC#N)C(=O)C2=C3C)cc1` (stereo not shown) [E, reference compound] displayed a T1/2 of 90 h. Further, in series [2], the Color density was 0.90 and the λ max was 580 nm. In series [3], the “Initial color, visually observed” value is listed as “yellow” and the “Initial color, YI” value is 18.21.
Consider `CCOC12CCC(CC1)C21c2sc3ccccc3c2C(CC)=C2C(=O)N(S(=O)(=O)CC)C(=O)C21` (stereo not shown) [Compound 20], for which, in series [1], the T1/2 stood at 100 h. Also, in series [2], the Color density is 0.95 and the λ max was found to be 548 nm. In series [3], the “Initial color, visually observed” value is given as “pale yellow” and the “Initial color, YI” value came to 4.85.
As for `CCN1C(=O)C2=C(C)c3cc(-c4ccc(OC)cc4)n(-c4ccccc4)c3C3(C4CC5CC(C4)CC3C5)C2C1=O` (stereo not shown) [F, reference compound], the T1/2 in series [1] stood at 80 h. Also, in series [2], the Color density worked out at 0.75 and the λ max was 600 nm. Moreover, in series [3], the “Initial color, visually observed” value is “yellow” and the “Initial color, YI” value is recorded as 19.23.
Turning to `CCCC1=C2C(=O)N(C(Cl)(Cl)Cl)C(=O)C2C2(c3oc4c(c31)CCCC4)C1CCC2CC1` (stereo not shown) [Compound 24], the T1/2 in series [1] came to 140 h. In series [2], this compound had a Color density of 0.94 and a λ max of 576 nm. Moreover, in series [3], the “Initial color, visually observed” value is reported as “colorless” and the “Initial color, YI” value was 2.45.
On the same counts, the results for `CCC1=C2C(=O)N(S(=O)(=O)O)C(=O)C2C2(c3c(OC)cc(OC)cc31)C1CC3CC(C1)CC2C3` (stereo not shown) [Compound 27] are 100 h, 0.68, 568 nm, “pale yellow” and 4.68.
On the same counts, the results for `CC12CCCC(CCC1)C21c2sc([N+](=O)[O-])cc2C(C2CC2)=C2C(=O)N(C(=O)c3c(F)c(F)c(F)c(F)c3F)C(=O)C21` (stereo not shown) [Compound 12] are 140 h, 1.02, 593 nm, “colorless” and 2.25.
As to `CCOC(=O)N1C(=O)C2=C(C)c3c(sc4ccccc34)C3(C4CCCC3(OC)CCC4)C2C1=O` (stereo not shown) [Compound 15], the T1/2 in series [1] amounted to 110 h. In series [2], this compound showed a Color density of 0.85 and a λ max of 520 nm. Besides, in series [3], the “Initial color, visually observed” value is given as “colorless” and the “Initial color, YI” value was 2.95.
On the same counts, the results for `CC1=C2C(=O)N(CC#N)C(=O)C2C2(c3sc(-c4ccccc4)cc31)C1CC3CC(C1)CC2C3` (stereo not shown) [D, reference compound] are 90 h, 0.82, 570 nm, “yellow” and 10.75.
Compound `CCN1C(=O)C2=C(C)c3ccsc3C3(C4CC5CC(C4)CC3C5)C2C1=O` (stereo not shown) [A, reference compound] registered a T1/2 in series [1] of 100 h. In series [2], this compound showed a Color density of 0.68 and a λ max of 540 nm. Also, in series [3], the “Initial color, visually observed” value is listed as “yellow” and the “Initial color, YI” value worked out at 10.03.
In series [1], `COc1ccc(-c2cc3c(n2C)C2(C4CC5CC(C4)CC2C5)C2C(=O)N(CC#N)C(=O)C2=C3C)cc1` (stereo not shown) [I, reference compound] showed a T1/2 of 80 h. In addition, in series [2], the Color density is given as 0.73 and the λ max came to 630 nm. In series [3], the “Initial color, visually observed” value is “yellow” and the “Initial color, YI” value amounted to 18.89.
On the same counts, the results for `CC1=C2C(=O)N(C#N)C(=O)C2C2(c3oc(-c4ccccc4)cc31)C1CC3CC(C1)CC2C3` (stereo not shown) [Compound 5] are 260 h, 1.12, 603 nm, “colorless” and 3.96.
On the same counts, the results for `O=C1C2=C(c3ccccc3)c3c(oc4ccccc34)C3(C4CCC3CC4)C2C(=O)N1C(Cl)(Cl)Cl` (stereo not shown) [Compound 21] are 115 h, 0.95, 540 nm, “colorless” and 2.95.
On the same counts, the results for `CC1=C2C(=O)N(C#N)C(=O)C2C2(c3sccc31)C1CC3CC(C1)CC2C3` (stereo not shown) [Compound 28] are 270 h, 0.56, 604 nm, “colorless” and 2.06.
For the compound `N#CN1C(=O)C2=C(c3ccoc3)c3ccoc3C3(C4CCC3CC4)C2C1=O` (stereo not shown) [Compound 18], the T1/2 in series [1] was found to be 250 h. In series [2], this compound yielded a Color density of 1.11 and a λ max of 613 nm. Further, in series [3], the “Initial color, visually observed” value was “colorless” and the “Initial color, YI” value is recorded as 2.95.
Take `O=C1C2=C(C3CC3)c3c(sc4c3CCCC4)C3(C4CC5CC(C4)CC3C5)C2C(=O)N1S(=O)(=O)c1ccccc1` (stereo not shown) [Compound 10]: the T1/2 in series [1] is 140 h. In series [2], this compound showed a Color density of 1.12 and a λ max of 620 nm. In series [3], the “Initial color, visually observed” value is “pale yellow” and the “Initial color, YI” value is on record as 4.99.
In turn, `CCOC(=O)CN1C(=O)C2=C(C)c3cc(-c4ccc(OC)cc4)n(C)c3C3(C4CC5CC(C4)CC3C5)C2C1=O` (stereo not shown) [H, reference compound] showed a T1/2 in series [1] of 80 h. Moreover, in series [2], the Color density turned out to be 0.78 and the λ max turned out to be 620 nm. For the same compound, in series [3], the “Initial color, visually observed” value is “yellow” and the “Initial color, YI” value worked out at 19.52.
The compound `COc1c(C)sc2c1C1(C3CC4CC(C3)CC1C4)C1C(=O)N(C(=O)Oc3ccccc3)C(=O)C1=C2C` (stereo not shown) [Compound 26] showed a T1/2 in series [1] of 120 h. In series [2], this compound came in with a Color density of 0.54 and a λ max of 546 nm. In series [3], the “Initial color, visually observed” value is reported as “colorless” and the “Initial color, YI” value is listed as 3.84.
On the same counts, the results for `N#CN1C(=O)C2=C(C3CC3)c3ccoc3C3(C4CC5CC(C4)CC3C5)C2C1=O` (stereo not shown) [Compound 29] are 385 h, 0.98, 600 nm, “colorless” and 2.01.
In series [1], `CC1=C2C(=O)N(C#N)C(=O)C2C2(c3occc31)C1CC3CC(C1)CC2C3` (stereo not shown) [Compound 31] yielded a T1/2 of 265 h. In series [2], this compound registered a Color density of 0.65 and a λ max of 580 nm. For the same compound, in series [3], the “Initial color, visually observed” value is “colorless” and the “Initial color, YI” value is recorded as 2.00.
On the same counts, the results for `CC1=C2C(=O)N(C(=O)c3ccccc3)C(=O)C2C2(c3occc31)C1CC3CC(C1)CC2C3` (stereo not shown) [Compound 33] are 100 h, 0.58, 550 nm, “colorless” and 2.16.
In turn, `CCN1C(=O)C2=C(C)c3cc(-c4ccc(OC)cc4)n(C)c3C3(C4CC5CC(C4)CC3C5)C2C1=O` (stereo not shown) [G, reference compound] gave a T1/2 in series [1] of 85 h. Besides, in series [2], the Color density was found to be 0.88 and the λ max was 610 nm. Moreover, in series [3], the “Initial color, visually observed” value is given as “yellow” and the “Initial color, YI” value was determined as 19.56.
In turn, `O=C1C2=C(C3CC3)c3ccsc3C3(C4CC5CC(C4)CC3C5)C2C(=O)N1C(=O)c1ccccc1` (stereo not shown) [Compound 3, N-Benzoyl-4-cyclopropyl-6,7-dihydrospirobenzothiophenedicarboxyimide-7,2'-tricyclo[3.3.1.1^3,7]decane] gave a T1/2 in series [1] of 135 h. In series [2], the Color density is 0.90 and the λ max stood at 570 nm. Further, in series [3], the “Initial color, visually observed” value is listed as “colorless” and the “Initial color, YI” value is 3.84.
